According to ChEMBL document CHEMBL2346513, “Synthesis and evaluation of methylsulfonylnitrobenzamides (MSNBAs) as inhibitors of the thyroid hormone receptor-coactivator interaction” (Bioorg Med Chem Lett, 2013):

What was measured:
HepG2 = test: Cytotoxicity against human HepG2 cells assessed as ATP level after 72 hrs by CellTiter-Glo assay; format: cell-based; settings: HepG2, 72 h
[1] = target: T1, Thyroid hormone receptor alpha (Homo sapiens, UniProt P10827); test: Inhibition of TRalpha-LBD (unknown origin) interaction to texas red-labeled SRC2-2 peptide by fluorescence polarization assay
T1 sequence (P10827 whole entry): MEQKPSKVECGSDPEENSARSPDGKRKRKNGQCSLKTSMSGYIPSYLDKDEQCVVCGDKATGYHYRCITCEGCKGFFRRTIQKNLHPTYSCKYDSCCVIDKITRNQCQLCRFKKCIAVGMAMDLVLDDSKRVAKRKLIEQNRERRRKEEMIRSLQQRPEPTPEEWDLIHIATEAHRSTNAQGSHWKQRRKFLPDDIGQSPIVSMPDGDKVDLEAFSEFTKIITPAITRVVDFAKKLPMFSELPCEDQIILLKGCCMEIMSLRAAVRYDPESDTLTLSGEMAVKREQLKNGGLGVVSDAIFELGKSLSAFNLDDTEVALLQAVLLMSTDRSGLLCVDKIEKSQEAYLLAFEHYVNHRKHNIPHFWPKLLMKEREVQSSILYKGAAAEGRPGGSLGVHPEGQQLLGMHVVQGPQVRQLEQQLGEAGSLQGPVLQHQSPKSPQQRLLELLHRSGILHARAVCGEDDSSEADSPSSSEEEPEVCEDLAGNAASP

Vitamin D3 receptor = target: T2, Vitamin D3 receptor (Homo sapiens, UniProt P11473); test: Inhibition of VDR (unknown origin) interaction to SRC2-3 peptide by fluorescence polarization assay
T2 sequence (P11473 whole entry): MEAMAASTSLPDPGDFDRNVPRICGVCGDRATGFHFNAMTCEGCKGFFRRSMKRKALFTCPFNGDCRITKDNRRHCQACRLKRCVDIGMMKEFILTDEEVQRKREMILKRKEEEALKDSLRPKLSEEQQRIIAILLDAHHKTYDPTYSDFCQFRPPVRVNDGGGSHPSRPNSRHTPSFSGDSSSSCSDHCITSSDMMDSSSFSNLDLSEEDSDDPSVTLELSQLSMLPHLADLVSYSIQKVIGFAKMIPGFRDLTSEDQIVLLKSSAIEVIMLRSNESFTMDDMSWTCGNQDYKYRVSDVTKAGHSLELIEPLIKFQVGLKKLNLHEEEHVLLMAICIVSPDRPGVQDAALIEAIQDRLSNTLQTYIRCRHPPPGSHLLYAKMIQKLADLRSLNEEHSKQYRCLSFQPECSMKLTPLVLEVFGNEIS

[2] = target: T3, Thyroid hormone receptor beta (Homo sapiens, UniProt P10828); test: Inhibition of TRbeta-LBD (unknown origin) interaction to texas red-labeled SRC2-2 peptide by fluorescence polarization assay
T3 sequence (P10828 whole entry): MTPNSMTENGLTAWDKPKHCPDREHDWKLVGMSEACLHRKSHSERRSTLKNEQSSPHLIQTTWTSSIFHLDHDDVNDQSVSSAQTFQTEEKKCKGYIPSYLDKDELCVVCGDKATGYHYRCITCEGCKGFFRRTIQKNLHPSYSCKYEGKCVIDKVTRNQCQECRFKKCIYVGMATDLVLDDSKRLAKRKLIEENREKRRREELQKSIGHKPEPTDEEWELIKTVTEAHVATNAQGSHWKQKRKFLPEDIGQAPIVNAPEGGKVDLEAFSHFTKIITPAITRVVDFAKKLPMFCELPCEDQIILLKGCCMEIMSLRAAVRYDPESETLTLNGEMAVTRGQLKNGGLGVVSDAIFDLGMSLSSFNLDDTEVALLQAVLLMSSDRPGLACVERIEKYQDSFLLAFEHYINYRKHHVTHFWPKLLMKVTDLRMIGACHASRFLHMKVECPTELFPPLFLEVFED

Row | Compound | IC50 [1] | IC50 (Vitamin D3 receptor) | IC50 [2] | EC50 (HepG2)
1 | CCCN(C(=O)CN(C)C(=O)c1ccc(S(C)(=O)=O)c([N+](=O)[O-])c1)c1ccccc1 | > 60 µM | > 60 µM | > 60 µM | > 27 µM
2 | CN(CC(=O)N1Cc2ccccc2C1)C(=O)c1ccc(S(C)(=O)=O)c([N+](=O)[O-])c1 | > 60 µM | > 60 µM | > 60 µM | > 27 µM
3 | CS(=O)(=O)c1ccc(C(=O)NCCCC(=O)N2CCCCC2)cc1[N+](=O)[O-] | > 60 µM | > 60 µM | > 60 µM | > 27 µM
4 | Cc1ccc(N2CCN(C(=O)CN(C)C(=O)c3ccc(S(C)(=O)=O)c([N+](=O)[O-])c3)CC2)cc1 | > 60 µM | > 60 µM | > 60 µM | > 27 µM
5 | CN(Cc1ccccc1F)C(=O)C1CCN(C(=O)c2ccc(S(C)(=O)=O)c([N+](=O)[O-])c2)CC1 | > 60 µM | > 60 µM | > 60 µM | > 27 µM
6 | CS(=O)(=O)c1ccc(C(=O)NCCCC(=O)N2Cc3ccccc3C2)cc1[N+](=O)[O-] | > 60 µM | > 60 µM | > 60 µM | > 27 µM
7 | CS(=O)(=O)c1ccc(C(=O)NCCC(=O)N2Cc3ccccc3C2)cc1[N+](=O)[O-] | > 60 µM | > 60 µM | > 60 µM | 11.2 µM
8 | CS(=O)(=O)c1ccc(C(=O)NCC(=O)N(Cc2ccccc2)c2ccccc2)cc1[N+](=O)[O-] | > 60 µM | > 60 µM | 20 µM | > 27 µM
9 | CS(=O)(=O)c1ccc(C(=O)NCCC(=O)N2CCc3ccccc3C2)cc1[N+](=O)[O-] | > 60 µM | > 60 µM | > 60 µM | > 27 µM
10 | CS(=O)(=O)c1ccc(C(=O)N2CCC(C(=O)N(Cc3ccccc3)Cc3ccccc3)CC2)cc1[N+](=O)[O-] | > 60 µM | > 60 µM | > 60 µM | > 27 µM
11 | Cc1ccc(N2CCN(C(=O)CCNC(=O)c3ccc(S(C)(=O)=O)c([N+](=O)[O-])c3)CC2)cc1 | > 60 µM | > 60 µM | > 60 µM | > 27 µM
12 | CN1CCN(C(=O)CNC(=O)c2ccc(S(C)(=O)=O)c([N+](=O)[O-])c2)CC1 | > 60 µM | > 60 µM | > 60 µM | > 27 µM
13 | CC1CCN(C(=O)CCCNC(=O)c2ccc(S(C)(=O)=O)c([N+](=O)[O-])c2)CC1 | > 60 µM | > 60 µM | > 60 µM | > 27 µM
14 | CS(=O)(=O)c1ccc(C(=O)NCCC(=O)N2CCN(c3ccc(C(F)(F)F)cc3)CC2)cc1[N+](=O)[O-] | > 60 µM | > 60 µM | > 60 µM | > 27 µM
15 | CN(CC(=O)N1CCN(c2ccc(C(F)(F)F)cc2)CC1)C(=O)c1ccc(S(C)(=O)=O)c([N+](=O)[O-])c1 | > 60 µM | > 60 µM | > 60 µM | 11.9 µM
16 | CS(=O)(=O)c1ccc(C(=O)NCC(=O)N2CCc3ccccc3C2)cc1[N+](=O)[O-] | > 60 µM | 50 µM | 46 µM | > 27 µM
17 | CC(C)N(C(=O)CNC(=O)c1ccc(S(C)(=O)=O)c([N+](=O)[O-])c1)C(C)C | > 60 µM | > 60 µM | > 60 µM | > 27 µM
18 | CN(Cc1cccc(F)c1)C(=O)CCCNC(=O)c1ccc(S(C)(=O)=O)c([N+](=O)[O-])c1 | > 60 µM | > 60 µM | > 60 µM | > 27 µM
19 | CN1CCN(C(=O)C2CCN(C(=O)c3ccc(S(C)(=O)=O)c([N+](=O)[O-])c3)CC2)CC1 | > 60 µM | > 60 µM | > 60 µM | > 27 µM
20 | CS(=O)(=O)c1ccc(C(=O)NCCC(=O)N2CCN(c3ccc(F)cc3)CC2)cc1[N+](=O)[O-] | > 60 µM | > 60 µM | > 60 µM | > 27 µM
21 | CS(=O)(=O)c1ccc(C(=O)NCC(=O)N2CCN(c3ccc(C(F)(F)F)cc3)CC2)cc1[N+](=O)[O-] | > 60 µM | > 60 µM | > 60 µM | > 27 µM
22 | CN(Cc1ccccc1)C(=O)CN(C)C(=O)c1ccc(S(C)(=O)=O)c([N+](=O)[O-])c1 | > 60 µM | > 60 µM | > 60 µM | > 27 µM
23 | CN(Cc1ccccc1)C(=O)CNC(=O)c1ccc(S(C)(=O)=O)c([N+](=O)[O-])c1 | > 60 µM | > 60 µM | 39 µM | > 27 µM
24 | CN(Cc1ccccc1)C(=O)C1CCN(C(=O)c2ccc(S(C)(=O)=O)c([N+](=O)[O-])c2)CC1 | > 60 µM | > 60 µM | > 60 µM | > 27 µM
25 | CS(=O)(=O)c1ccc(C(=O)NCC(=O)N2CCN(c3ccccc3F)CC2)cc1[N+](=O)[O-] | > 60 µM | > 60 µM | > 60 µM | > 27 µM
26 | Cc1ccc(N2CCN(C(=O)C3CCN(C(=O)c4ccc(S(C)(=O)=O)c([N+](=O)[O-])c4)CC3)CC2)cc1 | > 60 µM | > 60 µM | > 60 µM | > 27 µM

Further lines, with some results ahead:

Row | IC50 [1] | IC50 (Vitamin D3 receptor) | IC50 [2] | Compound | EC50 (HepG2)
27 | 29 µM | > 60 µM | 59 µM | CS(=O)(=O)c1ccc(C(=O)NCCCC(=O)N(Cc2ccccc2)Cc2ccccc2)cc1[N+](=O)[O-] | > 27 µM
28 | > 60 µM | > 60 µM | > 60 µM | CN(CC(=O)N1CCc2ccccc21)C(=O)c1ccc(S(C)(=O)=O)c([N+](=O)[O-])c1 | > 27 µM
29 | > 60 µM | > 60 µM | > 60 µM | CC1Cc2ccccc2N1C(=O)CN(C)C(=O)c1ccc(S(C)(=O)=O)c([N+](=O)[O-])c1 (configuration not stated) | 5.5 µM
30 | > 60 µM | > 60 µM | > 60 µM | CS(=O)(=O)c1ccc(C(=O)NCCC(=O)N2CCCCC2)cc1[N+](=O)[O-] | > 27 µM
31 | > 60 µM | > 60 µM | > 60 µM | CS(=O)(=O)c1ccc(C(=O)NCCC(=O)N2CCc3ccccc32)cc1[N+](=O)[O-] | > 27 µM
32 | > 60 µM | > 60 µM | > 60 µM | CN(CC(=O)NC12CC3CC(CC(C3)C1)C2)C(=O)c1ccc(S(C)(=O)=O)c([N+](=O)[O-])c1 | > 27 µM
33 | > 60 µM | 7 µM | > 60 µM | CS(=O)(=O)c1ccc(C(=O)NCCCC(=O)N2CCN(c3ccc(C(F)(F)F)cc3)CC2)cc1[N+](=O)[O-] | 13 µM
34 | 58 µM | 51 µM | > 60 µM | CS(=O)(=O)c1ccc(C(=O)NCC(=O)N2CCN(c3ccc(F)cc3)CC2)cc1[N+](=O)[O-] | 12.9 µM
35 | 4.2 µM | > 60 µM | 5.8 µM | CN(C(=O)CNC(=O)c1ccc(S(C)(=O)=O)c([N+](=O)[O-])c1)c1ccccc1 | > 27 µM
36 | 9.6 µM | > 60 µM | 16 µM | CS(=O)(=O)c1ccc(C(=O)NCC(=O)NC23CC4CC(CC(C4)C2)C3)cc1[N+](=O)[O-] | > 27 µM
37 | 44 µM | > 60 µM | > 60 µM | CS(=O)(=O)c1ccc(C(=O)NCC(=O)N2CCCCC2)cc1[N+](=O)[O-] | 14 µM
38 | 29 µM | > 60 µM | > 60 µM | CN(Cc1cccc(F)c1)C(=O)CCNC(=O)c1ccc(S(C)(=O)=O)c([N+](=O)[O-])c1 | 11.2 µM
